Measured values taken from patent publication US12630564B2, “Internal cyclic sulphiamidine amide-aryl amide compound and use thereof for treating hepatitis B” (SHANGHAI LONGWOOD BIOPHARMACEUTICALS CO., LTD., priority 2019, dated 2026).

Experiments:
Assay type in all cases: cell-based
[1] = tested on: HBV DNA in the supernatant of HepG2.2.15; assay: Determination of anti-HBV activity in HepG2.2.15 cell, HBV DNA in supernatant by qPCR (Experiment 2); details: Hepatitis B virus, HepG2.2.15, HepG2.2.15 cells
Experimental: Experiment 2: Determination of Anti-HBV Activity in HepG2.2.15 Cell
• QIAamp 96 DNA Blood Kit (12) (Qiagen, Item No. 51162); • FastStart Universal Probe Master (Roche, Item No. 04914058001); • Cell-titer Glo Testing Reagent (Promega, Item No. G7573).
Compound dilution: all the compounds for in vitro anti-HBV activity assay and cytotoxicity assay were 3-fold diluted into 8 concentrations. The final starting concentration of the tested compound was 30 μM, the final starting concentration of reference compound GLS4 was 1 μM, and the final concentration of DMSO was 0.5%.
HepG2.2.15 cells (4×10^4 cells/well) was inoculated into 96-well plates and cultured overnight at 37° C., 5% CO2. On the second day, fresh culture medium containing different concentrations of compounds was added into the culture wells. On the fifth day, the old culture solution in the culture well was aspirated and fresh culture medium containing different concentrations of the compound was added.
On the eighth day, the supernatant in the culture well was collected for extraction of HBV DNA, and the content of HBV DNA in the supernatant of HepG2.2.15 was detected by qPCR. After the supernatant was collected, the medium and Cell-titer Glo reagent were added into the culture well, and the chemiluminescence value of each well was measured by microplate reader.
The activity calculation formula was as follows: Y=Bottom+(Top−Bottom)/(1+10^((Log IC50−X)*HillSlope)); • wherein, • X represents the logarithm of the concentration, Y represents the effect value, and Y starts from the bottom and fits to the top by S type fitting.
Bottom represents the bottom of the curve;
Top represents the top of the curve;
HillSlope represents the absolute value of the maximum slope of the curve.

[2] = Determination of cytotoxicity, HepG2 cells, resazurin assay (Experiment 3); details: human
Experimental: (§1) Experiment 3: Determination of Cytotoxicity
(§2) The cytotoxicity of the test compound was tested using HepG2 cells. The cells were incubated for 4 days in the presence of the test compound. Cell activity was assessed using the resazurin assay.

HepG2 cells = assay: as above; details: 4 days
Experimental: as §1, §2

SMILES | EC50 [1] [nM] | CC50 at 4 days [2] [nM] | CC50 (HepG2 cells) [nM]
COc1ccc(C[C@H]2CCc3c(cn(C)c3C(=O)Nc3ccc(F)c(C#N)c3)S(=N)(=O)N2)cc1 (single isomer, unassigned) [Compound 100c14] | 0.1 to 100 | > 30000 | –
Cn1cc2c(c1C(=O)Nc1ccc(F)c(C#N)c1)CC[C@H](C1CC1)NS2(=N)=O (single isomer, unassigned) [Compound 100a01] | – | > 30000 | –
Cn1cc2c(c1C(=O)Nc1ccc(F)c(C#N)c1)CC[C@H](Cc1ccc(F)cc1)NS2(=N)=O (single isomer, unassigned) [Compound 100c02] | 0.1 to 100 | > 30000 | –
CC(C)[C@@H]1C=Cc2c(cn(C)c2C(=O)Nc2ccc(F)c(C#N)c2)S(=N)(=O)N1 (single isomer, unassigned) [Compound 10h2] | – | – | > 30000
Cn1cc2c(c1C(=O)Nc1ccc(F)c(C#N)c1)CC[C@H](C1CC1)NS2(=N)=O (single isomer, unassigned) [Compound 100a02] | – | – | > 30000
Cn1cc2c(c1C(=O)Nc1ccc(F)c(C#N)c1)CC[C@H](CC1CC1)NS2(=N)=O (single isomer, unassigned) [Compound 100b02] | 0.1 to 100 | > 30000 | –
Cn1cc2c(c1C(=O)Nc1ccc(F)c(C#N)c1)C=C[C@H](Cc1ccc(F)cc1)NS2(=N)=O (single isomer, unassigned) [Compound 100c04] | 0.1 to 100 | > 30000 | –
Cn1cc2c(c1C(=O)Nc1ccc(F)c(C#N)c1)C=C[C@H](C1CC1)NS2(=N)=O (single isomer, unassigned) [Compound 100a04] | 0.1 to 100 | > 30000 | –
Cn1cc2c(c1C(=O)Nc1ccc(F)c(C#N)c1)C=C[C@H](CC1CC1)NS2(=N)=O (single isomer, unassigned) [Compound 100b04] | 0.1 to 100 | > 30000 | –
COc1ccc(C[C@H]2C=Cc3c(cn(C)c3C(=O)Nc3ccc(F)c(C#N)c3)S(=N)(=O)N2)cc1 (single isomer, unassigned) [Compound 100c16] | 0.1 to 100 | > 30000 | –
CC(C)[C@H]1C=Cc2c(cn(C)c2C(=O)Nc2ccc(F)c(C#N)c2)S(=N)(=O)N1 (single isomer, unassigned) [Compound 10b2] | – | – | > 30000
